Test results reported in patent US20090318504A1, “Use of GAL3 receptor antagonists for the treatment of depression and/or anxiety and compounds useful in such methods” (priority 2001, published 2009).

Experiments:
human GAL2 receptor = target: T1, human GAL2 receptor (Homo sapiens, UniProt O43603); experiment: Radioligand binding at cloned human GAL2 receptor; details: pyrimidines, read-out: Ki GalR2
T1 construct: expressed in transfected cells; membranes
T1 sequence (O43603 1-387): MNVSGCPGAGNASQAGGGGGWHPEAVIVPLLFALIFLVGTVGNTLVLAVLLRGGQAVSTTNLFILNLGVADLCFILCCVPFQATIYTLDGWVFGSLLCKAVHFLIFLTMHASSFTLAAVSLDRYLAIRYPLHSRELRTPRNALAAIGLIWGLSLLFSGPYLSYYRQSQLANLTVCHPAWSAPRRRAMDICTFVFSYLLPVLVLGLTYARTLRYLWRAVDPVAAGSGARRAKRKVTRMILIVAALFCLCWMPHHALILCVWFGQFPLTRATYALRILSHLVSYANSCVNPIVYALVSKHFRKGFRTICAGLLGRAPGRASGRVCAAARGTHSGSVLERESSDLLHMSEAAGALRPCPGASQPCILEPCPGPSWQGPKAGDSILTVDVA
Excerpt: (§1) In order to test compounds for selective binding to the human GAL3 receptor the cloned cDNAs encoding both the human and rat GALL and GAL2 receptors have been used. The cloning and assay methods for the human and rat GAL1 receptors may be found in PCT International Publication No. WO 95/22608, the contents of which are hereby incorporated by reference. The cloning and assay methods for the human and rat GAL2 receptors may be found in PCT International Publication No. WO 97/26853, the contents of which are hereby incorporated by reference.
(§2) The present invention provides for a method of determining the binding affinity of a GAL3 antagonist, wherein the GAL3 antagonist is dissolved in a “suitable solvent”. A “suitable solvent” means one which permits the measurement of binding affinity of the GAL3 antagonist to the human GAL3 receptor at concentrations less than 1 μM, preferably less than 100 nM. Examples of solvents include, but are not limited to, DMSO, ethanol, N,N-dimethylacetamide, or water. For indolones, the preferred solvent is 3% DMSO (final concentration in the assay). For pyrimidines, the preferred solvent is 1% ethanol/0.09% polypuronic acid F-127 (final concentration in the assay). For any other type of compounds, the preferred solvent is the solvent which permits the measurement of binding affinity of a GAL3 antagonist at the lowest concentration. Once a suitable solvent is ascertained for the binding assay of the human GAL3 receptor, the same solvent is used in assays to determine the binding affinity at the GAL1 receptor, the serotonin transporter, the norepinephrine transporter, and the dopamine transporter. A solvent of 0.4% DMSO is used in the central monoamine oxidase enzyme assay.
(§3) The binding properties of the pyrimidines of the present invention were evaluated at the cloned human galanin receptors, GAL1, GAL2, and GAL3, using protocols described herein.
(§4) The binding properties of the indolones of the present invention were evaluated at the cloned human galanin receptors, GAL1, GAL2, and GAL3, using protocols described herein.
(§5) LM(tk−) cells were stably transfected with the human GALL or GAL3 receptor. CHO cells were stably transfected with the human GAL2 receptor.
(§6) cDNAs for the human and rat GAL1, and human and rat GAL3 receptors were transfected with a G-418 resistant gene into the mouse fibroblast LM(tk−) cell line by a calcium phosphate transfection method (Cullen, 1987). Stably transfected cells were selected with G-418. Human and rat GAL2 receptors were similarly transfected into CHO cells.
Membranes were harvested from stably transfected LM(tk−) cells. Adherent cells were washed twice in ice-cold phosphate buffered saline (138 mM NaCl, 8.1 mM Na2HPO4, 2.5 mM KCl, 1.2 mM KH2PO4, 0.9 mM CaCl2, 0.5 mM MgCl2, pH 7.4) and lysed by sonication in ice-cold sonication buffer (20 mM Tris-HCl, 5 mM EDTA, pH 7.7). Large particles and debris were cleared by low speed centrifugation (200×g, 5 min, 4° C.). Membranes were collected from the supernatant fraction by centrifugation (32,000×g, 18 min, 4° C.), washed with ice-cold hypotonic buffer, and collected again by centrifugation (32,000×g, 18 min, 4° C.). The final membrane pellet was resuspended by sonication into a small volume of ice-cold binding buffer (~1 ml for every 5 plates: 10 mM NaCl, 20 mM HEPES, 0.22 mM KH2PO4, 1.26 mM CaCl2, 0.81 mM MgSO4, pH 7.4). Protein concentration was measured by the Bradford method (Bradford, 1976) using Bio-Rad Reagent, with bovine serum albumin as a standard. […]

human GAL1 receptor = target: T2, human GAL1 receptor (Homo sapiens, UniProt P47211); experiment: Radioligand binding at cloned human GAL1 receptor; details: pyrimidines, read-out: Ki GalR1
T2 construct: expressed in transfected cells; membranes
T2 sequence (P47211 1-349): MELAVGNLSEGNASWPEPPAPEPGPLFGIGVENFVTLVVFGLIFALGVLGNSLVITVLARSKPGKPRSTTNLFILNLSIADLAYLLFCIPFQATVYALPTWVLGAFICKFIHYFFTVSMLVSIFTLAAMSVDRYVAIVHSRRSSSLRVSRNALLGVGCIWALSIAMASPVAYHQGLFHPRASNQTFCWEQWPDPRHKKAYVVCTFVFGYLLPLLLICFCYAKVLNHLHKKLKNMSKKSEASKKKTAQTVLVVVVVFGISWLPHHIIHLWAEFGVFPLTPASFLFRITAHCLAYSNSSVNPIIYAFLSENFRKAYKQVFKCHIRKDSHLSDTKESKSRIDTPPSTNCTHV
Excerpt: as §1, §2, §3, §4, §5, §6
Membranes were harvested from stably transfected LM(tk−) cells. […] Protein concentration was measured by the Bradford method (Bradford, 1976) using Bio-Rad Reagent, with bovine serum albumin as a standard. […]

human GAL3 receptor = target: T3, human GAL3 receptor (Homo sapiens, UniProt O60755); experiment: Radioligand binding at cloned human GAL3 receptor; details: for Ki: pyrimidines, cloned human receptor, read-out: Ki GalR3
T3 construct: expressed in transfected cells; membranes
T3 sequence (O60755 1-368): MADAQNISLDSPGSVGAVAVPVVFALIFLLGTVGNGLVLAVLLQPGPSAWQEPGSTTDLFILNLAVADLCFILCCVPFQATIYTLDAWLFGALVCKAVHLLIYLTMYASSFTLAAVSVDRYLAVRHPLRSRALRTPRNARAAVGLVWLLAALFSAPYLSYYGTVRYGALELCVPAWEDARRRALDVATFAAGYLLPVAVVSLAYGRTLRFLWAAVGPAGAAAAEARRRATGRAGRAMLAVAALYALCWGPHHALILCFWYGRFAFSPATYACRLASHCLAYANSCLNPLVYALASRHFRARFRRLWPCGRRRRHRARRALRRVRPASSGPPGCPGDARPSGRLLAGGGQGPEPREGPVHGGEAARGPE
Description: as §2, §3, §4, §5, §6
Membranes were harvested from stably transfected LM(tk−) cells. Adherent cells were washed twice in ice-cold phosphate buffered saline (138 mM NaCl, 8.1 mM Na2HPO4, 2.5 mM KCl, 1.2 mM KH2PO4, 0.9 mM CaCl2, 0.5 mM MgCl2, pH 7.4) and lysed by sonication in ice-cold sonication buffer (20 mM Tris-HCl, 5 mM EDTA, pH 7.7). Large particles and debris were cleared by low speed centrifugation (200×g, 5 min, 4° C.). Membranes were collected from the supernatant fraction by centrifugation (32,000×g, 18 min, 4° C.), washed with ice-cold hypotonic buffer, and collected again by centrifugation (32,000×g, 18 min, 4° C.). The final membrane pellet was resuspended by sonication into a small volume of ice-cold binding buffer (~1 ml for every 5 plates: 10 mM NaCl, 20 mM HEPES, 0.22 mM KH2PO4, 1.26 mM CaCl2, 0.81 mM MgSO4, pH 7.4). Protein concentration was measured by the Bradford method (Bradford, 1976) using Bio-Rad Reagent, with bovine serum albumin as a standard. Membranes were held on ice for up to one hour and used fresh, or flash frozen and stored in liquid nitrogen. Membranes were prepared similarly from CHO cells.
Galanin Receptors Binding assays were performed according to the following published methods: human GAL3 (PCT International Publication No. WO 98/15570), human GAL1 (PCT International Publication No. WO 95/2260), human GAL2 (PCT International Publication No. WO 97/26853).
Binding data were analyzed using nonlinear regression and statistical techniques available in the GraphPAD Prism package (San Diego, Calif.). Enzymatic assay data were derived from a standard curve of reference compound data.
The selectivity ratios for compounds of the claimed invention were calculated from the binding data presented in Tables 1-4, Table 7 and Table 9 of the subject application. […]

[1] = target: norepinephrine transporter (Rattus norvegicus, UniProt Q9WTR4); experiment: Binding at native NE transporter; details: rNE Uptk
Description: The binding properties of the compounds of the present invention were evaluated at one or more cloned receptors or native, tissue-derived transporters, using protocols described below.
The methods to determine binding affinity at native transporters are described in the following publications: 5HT transporter and NE transporter (Owens et al., 1997), and DA transporter (Javitch et al, 1984).

male Sprague-Dawley rats [2] = experiment: Rat Forced Swim Test (FST); assay type: in vivo; details: for Overall profile in the Forced Swim Test: conclusion of the study, male Sprague-Dawley rats
male Sprague-Dawley rats [3] = experiment: Rat Social Interaction Test (SIT); assay type: in vivo
male Sprague-Dawley rats [4] = details: ex vivo data (Leonard, 1996); cited from earlier work
[5] = rat FST, single p.o. administration, 10 mg/kg, 1 hr before test, listed as Flu0x, 10 mg/kg

Ki (human GAL2 receptor) [µM] | Ki (human GAL3 receptor) [µM] | SMILES | Overall profile in the Forced Swim Test (male Sprague-Dawley rats [2]) | further results
> 5 | 0.627 | Cc1ccc(N(c2ccc(C)cc2)c2cc(N3CCCCC3)nc(N)n2)cc1 [Example 4] |  | Ki (human GAL1 receptor): > 5 µM
 |  | Cc1ccc(Nc2cc(N3CCCCC3)nc(N(C)CCc3c[nH]c4ccccc34)n2)cc1 [Example 11] |  | Ki [1]: > 50 µM
 |  | CN(CCc1c[nH]c2ccccc12)c1nc(Nc2ccc(F)c(F)c2)cc(N2CCCCC2)n1 [Example 15] |  | Ki [1]: > 50 µM
1.77 | 0.079 | COCCN(c1ccc(C)cc1)c1cc(N2CCCCC2)nc(NCCc2c[nH]c3ccccc23)n1 [Example 19] |  | Ki (human GAL1 receptor): > 5 µM
 |  | Cc1ccc(Nc2cc(N3CCCCC3)nc(N(C)CCc3ccccc3)n2)cc1 [Example 22] | has antidepressant properties | Ki [1]: 13.1 µM
 |  | Cc1ccc(Nc2cc(N3CCCCC3)nc(N3CCN(c4ncccc4C(F)(F)F)CC3)n2)cc1 [Example 34] | produces an effect in the FST that resembles that of antidepressants | Immobility (male Sprague-Dawley rats [2]; rat FST, single p.o. administration, 10 mg/kg, 1 hr before test, 10 mg/kg): not significantly decrease in immobility; Rearing (male Sprague-Dawley rats [3]; SIT, single p.o., 0.03 mg/kg): 27 ± 3; Overall profile in the Social Interaction Test (male Sprague-Dawley rats [3]; conclusion of the study, male rats): produces an anxioltyic action in the social interaction test; Ki [1]: > 50 µM; GAL3/GAL1 binding ratio (Ki GAL1 divided by Ki GAL3) (human GAL3 receptor): 39 fold
0.245 |  | Cc1ccc(Nc2cc(N(C)C)nc(N3CCc4ccccc43)n2)cc1 [Example 75] |  | 
1.66 | 0.19 | CN(C)c1cc(Nc2ccc3ccccc3c2)nc(N(C)CCc2c[nH]c3ccccc23)n1 [Example 79] |  | Ki (human GAL1 receptor): 3.8 µM
 |  | O=C1C(=Nc2ccc(C(F)(F)F)cc2)c2ccccc2N1c1ccccc1 [Example 95, 1-PHENYL-3-[[4-(TRIFLUOROMETHYL)PHENYL]IMINO]-1,3-DIHYDRO-2H-INDOL-2-ONE] | does not produce antidepressant-like actions in the forced swim test | 
 |  | O=C1C(=Nc2ccc(Br)cc2)c2ccccc2N1c1ccccc1 [Example 98, 3-[(4-BROMOPHENYL)IMINO]-1-PHENYL-1,3-DIHYDRO-2H-INDOL-2-ONE] | produces a profile in the modified Lucki version of the FST resembling that of the clinically established antidepressant fluoxetine | Climbing (male Sprague-Dawley rats [2]; rat FST, single p.o. administration, 3 mg/kg, 1 hr before test, 3 mg/kg): significantly greater increase in climbing compared to 30 mg/kg of Example 98
 |  | O=C1C(=Nc2cc(Cl)cc(Cl)c2)c2ccccc2N1c1ccccc1 [Example 103, 3-[(3,5-DICHLOROPHENYL)IMINO]-1-PHENYL-1,3-DIHYDRO-2H-INDOL-2-ONE] | has antidepressant properties | 
 |  | CN(C)c1cc(Nc2ccc(Cl)c(Cl)c2)nc(N2CCN(Cc3ccccc3)CC2)n1 [Example 151] | produces behavioral effects in the FST in rats that resemble those of antidepressants | 
 | 0.216 | Cc1ccc(Nc2cc(N(C)C)nc(N3CCN(c4ncccc4C#N)CC3)n2)cc1 [Example 241] |  | 
 |  | O=C1/C(=N\c2ccc(Cl)c(Cl)c2)c2ccccc2N1c1ccsc1 [Example 272, (3Z)-3-[(3,4-DICHLOROPHENYL)IMINO]-1-(3-THIENYL)-1,3-DIHYDRO-2H-INDOL-2-ONE] | has the profile of an antidepressant | 
 |  | CNCCC(Oc1ccc(C(F)(F)F)cc1)c1ccccc1 (stereo not drawn) [Fluoxetine, fluoxetine, reference compound] |  | Climbing (male Sprague-Dawley rats [2]; [5]): 4.5 ± 1.2 counts; Diving (male Sprague-Dawley rats [2]; [5]): 1.0 ± 0.8 counts; p.o. dose required to inhibit 5-HT uptake in the CNS by 50% (male Sprague-Dawley rats [4]): 7 mg/kg

SMILES | Ki (human GAL2 receptor) [µM] | Ki (human GAL3 receptor) [µM] | Overall profile in the Forced Swim Test (male Sprague-Dawley rats [2]) | further results
CN(C)c1cc(N)nc(N(c2ccccc2)c2ccc(Cl)cc2)n1 [Example 58] | > 5 | 0.783 |  | Ki (human GAL1 receptor): > 5 µM
